Measurements reported in PubChem BioAssay (NCI).
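These data come from cells grown in 96-well plates and exposed to compound for 48 hours at five concentrations. Abbreviation: GI50, concentration required for 50% inhibition of growth. Definition used: TGI = concentration required for complete inhibition of growth.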

How the values were obtained:
Assay in all cases: inhibition of tumour cell growth, NCI panel, 48 h
[1] = test system: CCRF-CEM leukemia
[2] = test system: HT29 colon
[3] = test system: ACHN renal
[4] = test system: SW-620 colon
[5] = test system: SR leukemia
[6] = test system: OVCAR-5 ovarian
[7] = test system: NCI-H522 lung
[8] = test system: NCI/ADR-RES ovarian
[9] = test system: DU-145 prostate

SMILES | GI50 [1] [µM] | TGI [1] [µM] | GI50 [2] [µM] | TGI [2] [µM] | GI50 [3] [µM] | TGI [3] [µM] | GI50 [4] [µM] | TGI [4] [µM] | GI50 [5] [µM] | TGI [5] [µM] | GI50 [6] [µM] | TGI [6] [µM] | TGI [7] [µM] | GI50 [7] [µM] | TGI [8] [µM] | TGI [9] [µM] | GI50 [8] [µM] | GI50 [9] [µM]
CC[O-].CC[O-].[O-]c1ccccc1C=Nc1ccccc1.[O-]c1ccccc1C=Nc1ccccc1.[Ti+4] | 10.9 | > 100 | > 100 | > 100 | 23.8 | > 100 | 9.24 | > 100 | 26.9 | > 100 | > 100 | > 100 | – | – | – | – | – | –
CCOC(=O)C1Cc2c(ccc(OC)c2OC)C(=O)C1N (stereo not given) | – | > 100 | – | > 100 | – | > 100 | – | > 100 | – | > 100 | – | > 100 | > 100 | – | – | – | – | –
CC(=O)CC(=O)N(CCN(C(=O)CC(C)=O)c1ccccc1)c1ccccc1 | – | > 100 | – | – | – | > 100 | – | > 100 | – | – | – | > 100 | > 100 | – | – | – | – | –
CN1C(=O)n2c(nc3ccccc32)C(N=[N+]=[N-])(N=[N+]=[N-])C1=O (stereo not given) | – | > 100 | – | > 100 | – | > 100 | – | > 100 | – | – | – | > 100 | > 100 | – | – | – | – | –
O=C1c2ccccc2C(=O)N1/N=C\c1ccc(Br)cc1 | > 100 | > 100 | > 100 | > 100 | > 100 | > 100 | > 100 | > 100 | > 100 | > 100 | > 100 | > 100 | > 100 | – | – | – | – | –
CCOC(=O)C12CCCC1(O)N(NC(=O)c1cccc(Cl)c1)C(C)=C2C(=O)OC (stereo not given) | – | – | – | > 100 | – | > 100 | – | > 100 | – | > 100 | – | > 100 | > 100 | – | – | – | – | –
CCC[CH2][Sn]1([CH2]CCC)[O]C(c2ccccn2)S(=O)(=O)[O]1 (stereo not given) | 1.54 | 4.19 | 3.79 | 12.2 | 7.88 | 20 | 1.56 | 3.02 | 2.45 | 6.62 | – | – | 2.47 | 1.18 | – | – | – | –
COc1cccc(/C=C(/C(=O)O)c2cc(OC)c(OC)c(OC)c2)c1 | – | > 100 | – | > 100 | – | > 100 | – | > 100 | – | – | – | – | > 100 | – | – | – | – | –
O=C(O)C(=O)Cc1ccc2c(c1)OCO2 | – | 67.1 | – | > 100 | – | > 100 | – | > 100 | – | > 100 | – | > 100 | – | – | > 100 | > 100 | – | –
CC1(C)CCC(=O)c2c(O)ccc(O)c21 | – | – | – | > 100 | – | – | – | > 100 | – | – | – | > 100 | > 100 | – | – | – | – | –
CS(=O)(=O)c1ccc(N/N=C/c2c(-c3ccc(S(C)(=O)=O)cc3)[nH]c3ccc(F)cc23)cc1 | 1.2 | > 50 | 2.08 | > 50 | 3.32 | > 50 | 4.57 | > 50 | – | – | > 50 | > 50 | > 50 | 2.08 | > 50 | > 50 | > 50 | 2.75
CSc1nc(NC2OCC(OC(C)=O)C(OC(C)=O)C2OC(C)=O)c(N=CC=Nc2c(NC3OCC(OC(C)=O)C(OC(C)=O)C3OC(C)=O)nc(SC)n(C)c2=O)c(=O)n1C (stereo not given) | – | – | – | > 100 | – | > 100 | – | > 100 | – | > 100 | – | > 100 | > 100 | – | – | – | – | –
CC(=O)[CH-]C(=O)c1ccccc1.CC(=O)[CH-]C(=O)c1ccccc1.O=C([O-])C[O-].O=C([O-])C[O-].[Ti+4] | – | – | 27.7 | 91.7 | 44.9 | > 100 | 53.8 | > 100 | – | – | > 100 | > 100 | 70.5 | 17.5 | – | – | – | –
Nn1c(CCCl)nc2c(Br)cc(Br)cc2c1=O | – | 20.3 | – | > 100 | – | > 74.7 | – | > 55 | – | 72 | – | > 71.5 | 38.5 | – | – | – | – | –
CCOC(=O)/C(=C/c1ccc(OC)c(OC)c1)C(=O)c1ccccc1 | – | 55.1 | – | 30.8 | – | 68.1 | – | 48.5 | – | – | – | 40.6 | 29.1 | – | – | – | – | –
C/C(CC(=O)CCCC(=O)Nc1ccc(Cl)cc1Cl)=N/NC(=O)CC#N | – | > 100 | – | > 100 | – | > 100 | – | > 100 | – | – | – | > 100 | – | – | – | – | – | –
Cc1cc(C)c(C(=O)O)c(N)c1O | – | > 100 | – | > 100 | – | > 100 | – | > 100 | – | > 100 | – | > 100 | > 100 | – | – | – | – | –
